The record followed here is ChEMBL document CHEMBL3877327, “Activation of anti-oxidant Nrf2 signaling by substituted trans stilbenes” (Bioorg Med Chem, 2017).

The target of assay [1] is T1, Nuclear factor erythroid 2-related factor 2 (Homo sapiens) (UniProt Q16236).
T1 sequence (whole entry): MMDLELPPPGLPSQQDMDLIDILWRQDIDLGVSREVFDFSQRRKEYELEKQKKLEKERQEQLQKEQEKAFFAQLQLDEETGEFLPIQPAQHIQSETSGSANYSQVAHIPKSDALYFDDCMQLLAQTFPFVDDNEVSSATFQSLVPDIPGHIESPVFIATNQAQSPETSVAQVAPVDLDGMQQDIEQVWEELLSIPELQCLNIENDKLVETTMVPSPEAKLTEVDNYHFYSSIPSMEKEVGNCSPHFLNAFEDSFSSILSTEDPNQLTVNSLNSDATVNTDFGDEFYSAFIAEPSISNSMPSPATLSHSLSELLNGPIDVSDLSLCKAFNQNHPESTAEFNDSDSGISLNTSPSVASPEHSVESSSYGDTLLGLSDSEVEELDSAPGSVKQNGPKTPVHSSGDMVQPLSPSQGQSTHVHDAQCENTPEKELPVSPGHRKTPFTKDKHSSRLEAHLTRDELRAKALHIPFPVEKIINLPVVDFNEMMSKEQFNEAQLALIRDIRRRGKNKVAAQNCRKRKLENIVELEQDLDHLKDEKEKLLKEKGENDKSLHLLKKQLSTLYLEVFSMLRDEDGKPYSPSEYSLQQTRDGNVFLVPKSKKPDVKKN
The assay can be described thus: Activation of Nrf2 (unknown origin) expressed in human HepG2 cells after 5 hrs by ARE-driven luciferase reporter gene assay relative to control. It counts as cell-based. In general terms: Reporter assays use an easily measured gene product as a stand-in for the process of interest.

Assay [2] concerns the target T1, Nuclear factor erythroid 2-related factor 2 (Homo sapiens). The assay can be described thus: Activation of Nrf2 (unknown origin) expressed in human HepG2 cells at 15 uM after 5 hrs by ARE-driven luciferase reporter gene assay relative to control. It counts as cell-based.

`Fc1cccc(/C=C/c2cc(F)ccc2F)c1`: in assay [1], the fold change (FC) worked out at 10.7. For the compound `Fc1ccccc1/C=C/c1c(F)cccc1F`, in assay [1], the fold change (FC) was found to be 21.2. For the compound `COc1cccc(/C=C/c2ccc(F)cc2)c1OC`, in assay [1], the fold change (FC) is 16.9.

Turning to `COc1ccc(/C=C/c2ccccc2Cl)cc1`, the fold change (FC) in assay [1] is 17.8.

In turn, `COc1ccc(OC)c(/C=C/c2ccc(F)cc2)c1` returned a fold change (FC) in assay [1] of 10.7. In turn, `Fc1cccc(/C=C/c2ccc(F)c(F)c2)c1` showed a fold change (FC) in assay [1] of 12.2. The compound `COc1cccc(/C=C/c2ccc(C(C)C)cc2)c1OC` yielded a fold change (FC) in assay [1] of 33.9. For the compound `Fc1cccc(/C=C/c2ccccc2)c1`, in assay [1], the fold change (FC) was 4.9. `COc1cccc(/C=C/c2ccc(F)cc2)c1` registered a fold change (FC) in assay [1] of 4.4.

In assay [1], `Cc1ccc(/C=C/c2cccc([N+](=O)[O-])c2)cc1` came in with a fold change (FC) of 11.9. For `COc1ccccc1/C=C/c1ccccc1F`, the fold change (FC) in assay [1] stood at 18.4.

Turning to `Fc1ccc(/C=C/c2cc(F)ccc2F)cc1`, the fold change (FC) in assay [1] stood at 11.2. Still for that read-out and setting: with `Fc1ccc(F)c(/C=C/c2ccccc2F)c1` the figure was 22.3; with `COc1ccc(/C=C/c2cc(F)ccc2F)cc1`, 17; with `Fc1ccccc1/C=C/c1ccccc1F`, 13.9. `COc1cccc(/C=C/c2cccc(F)c2)c1OC`: the fold change (FC) in assay [1] worked out at 19.4.

On to `COc1ccc(/C=C/c2ccc(OC)cc2OC)cc1`, for which the fold change (FC) in assay [1] stood at 15.6. Turning to `Cc1ccc(/C=C/c2ccc(F)cc2)cc1`, the fold change (FC) in assay [1] was 1.1.

Compound `COc1cccc(/C=C/c2ccccc2OC)c1` had a fold change (FC) in assay [1] of 29.2. Compound `COc1cccc(/C=C/c2ccccc2)c1OC` registered a fold change (FC) in assay [1] of 25.4. Turning to `Cc1ccc(/C=C/c2ccc(F)c(F)c2)cc1`, the fold change (FC) in assay [1] is 10.2. For the compound `COc1ccc(OC)c(/C=C/c2ccc(OC)cc2OC)c1`, the fold change (FC) in assay [1] was found to be 12.9. For `COc1cccc(/C=C/c2cccc(F)c2)c1`, the fold change (FC) in assay [1] was 15.1. As for `COc1ccc(/C=C/c2cccc(F)c2)cc1OC`, the fold change (FC) in assay [1] stood at 5.9. With `Cc1ccc(/C=C/c2cccc(F)c2)cc1`, in assay [1], the fold change (FC) amounted to 4.7.

Consider `COc1cccc(/C=C/c2cc(OC)ccc2OC)c1`, for which the fold change (FC) in assay [2] worked out at 15.7. Compound `COc1cccc(/C=C/c2ccccc2F)c1` came in with a fold change (FC) in assay [1] of 14.4. For `Fc1cccc(/C=C/c2ccc(F)cc2F)c1`, in assay [1], the fold change (FC) turned out to be 8.2. Take `COc1ccc(/C=C/c2cccc([N+](=O)[O-])c2)cc1`: the fold change (FC) in assay [1] was determined as 69. Still for that read-out and setting: to `O=[N+]([O-])c1cccc(/C=C/c2ccccc2)c1` belongs 18.6; to `COc1ccccc1/C=C/c1ccccc1`, 23.1. `COc1ccc(/C=C/c2cccc(O)c2)cc1` had a fold change (FC) in assay [2] of 28.1. Compound `COc1ccc(/C=C/c2ccc(F)cc2)cc1OC` yielded a fold change (FC) in assay [1] of 1.6. In assay [1], `Fc1ccc(/C=C/c2ccccc2)cc1` displayed a fold change (FC) of 4.8. Take `Cc1ccc(/C=C/c2cccc(C(F)(F)F)c2)cc1`: in assay [1], the fold change (FC) came out at 19.2. Still for that read-out and setting: with `Cc1ccc(/C=C/c2ccccc2F)cc1` the figure was 10.1. Compound `COc1ccc(/C=C/c2ccc(F)c(F)c2)cc1` returned a fold change (FC) in assay [2] of 4.6.

The compound `Fc1ccc(/C=C/c2ccccc2F)cc1` displayed a fold change (FC) in assay [1] of 12.7. With `Oc1ccc(/C=C/c2cc(O)cc(O)c2)cc1`, in assay [1], the fold change (FC) worked out at 3.2. In assay [1], `Fc1ccc(/C=C/c2ccccc2F)c(F)c1` registered a fold change (FC) of 5.

For `Fc1cccc(/C=C/c2cccc(F)c2)c1`, the fold change (FC) in assay [1] was determined as 7. On the same count and under the same terms, to `Oc1ccc(/C=C/c2ccccc2F)cc1` belongs 13.4; to `Fc1ccccc1/C=C/c1ccccc1`, 10.7. On the same count and under the same terms, to `Cc1ccc(/C=C/c2ccc(F)cc2F)cc1` belongs 13.5. `Fc1ccc(/C=C/c2ccccc2F)cc1F` came in with a fold change (FC) in assay [2] of 11.5. `Fc1ccc(/C=C/c2ccc(F)c(F)c2)cc1` had a fold change (FC) in assay [2] of 7. Turning to `COc1ccc(/C=C/c2cccc(F)c2)cc1`, in assay [1], the fold change (FC) turned out to be 3.6. Still for that read-out and setting: to `Fc1ccc(/C=C/c2ccc(F)cc2F)cc1` belongs 16.8; to `Fc1ccc(/C=C/c2cccc(F)c2)cc1`, 4.5.

`C[S+]([O-])CCCCN=C=S` (stereo not drawn): the fold change (FC) in assay [1] came out at 12.4. `COc1ccc(/C=C/c2ccc(O)c(OC)c2)cc1` registered a fold change (FC) in assay [1] of 27.7. Consider `Fc1cccc(F)c1/C=C/c1ccccc1`, for which the fold change (FC) in assay [1] amounted to 11.4. In the case of `COc1cccc(/C=C/c2ccc(C)cc2)c1OC`, the fold change (FC) in assay [1] amounted to 16.1.

Regarding `Fc1cccc(/C=C/c2ccccc2F)c1`, the fold change (FC) in assay [2] came out at 8.5. Turning to `COc1ccc(/C=C/c2ccccc2F)cc1`, the fold change (FC) in assay [1] was determined as 14.9. Regarding `Fc1ccccc1/C=C/c1ccc(Cl)cc1`, the fold change (FC) in assay [1] is 5.3. Consider `COc1cccc(/C=C/c2ccc(C(F)(F)F)cc2)c1OC`, for which, in assay [1], the fold change (FC) turned out to be 65.5. `COc1ccc(/C=C/c2ccc(F)cc2)cc1`: the fold change (FC) in assay [1] was found to be 1.7.
